# Biological target: T1, progesterone receptor (PR) (Homo sapiens, UniProt P06401)
# T1 construct: Effects of Progestins and Antiprogestins on Alkaline Phosphatase Activity in T47D Cells; endogenous in cells; host or cells: T47D cells
# T1 sequence (P06401 1-933): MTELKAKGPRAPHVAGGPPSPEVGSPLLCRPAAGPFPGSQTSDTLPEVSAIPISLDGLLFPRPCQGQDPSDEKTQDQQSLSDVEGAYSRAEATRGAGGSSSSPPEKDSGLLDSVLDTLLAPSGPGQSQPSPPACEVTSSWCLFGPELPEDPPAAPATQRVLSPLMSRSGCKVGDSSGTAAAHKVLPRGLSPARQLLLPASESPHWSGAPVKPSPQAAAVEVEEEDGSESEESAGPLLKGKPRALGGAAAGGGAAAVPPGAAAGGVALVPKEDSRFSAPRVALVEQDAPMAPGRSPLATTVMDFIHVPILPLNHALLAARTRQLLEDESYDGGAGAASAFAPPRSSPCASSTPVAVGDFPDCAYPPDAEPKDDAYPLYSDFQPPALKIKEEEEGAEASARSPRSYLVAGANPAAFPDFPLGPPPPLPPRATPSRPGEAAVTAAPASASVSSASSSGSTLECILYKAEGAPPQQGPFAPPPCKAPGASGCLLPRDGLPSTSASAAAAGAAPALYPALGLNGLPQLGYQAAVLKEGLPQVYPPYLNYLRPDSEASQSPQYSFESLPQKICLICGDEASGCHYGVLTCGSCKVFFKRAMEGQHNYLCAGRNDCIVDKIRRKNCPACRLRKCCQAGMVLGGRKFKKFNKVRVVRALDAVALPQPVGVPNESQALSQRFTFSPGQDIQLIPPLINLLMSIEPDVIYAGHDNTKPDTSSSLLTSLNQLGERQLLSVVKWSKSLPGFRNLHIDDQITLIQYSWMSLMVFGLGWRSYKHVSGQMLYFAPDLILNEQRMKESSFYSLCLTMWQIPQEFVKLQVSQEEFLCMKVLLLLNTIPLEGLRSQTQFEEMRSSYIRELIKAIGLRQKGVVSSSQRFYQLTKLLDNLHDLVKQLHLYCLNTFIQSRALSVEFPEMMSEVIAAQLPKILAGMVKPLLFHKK
# Assay: T47D cell alkaline phosphatase assay (antagonist mode)
# Assay type: cell-based
# Settings: T47D cells, antagonist mode in the presence of 1 nM progesterone, 24 hours; read-out: IC50 (nM), T47D Cell Alkaline Phosphatase Assay
# Procedure: A. Effects of Progestins and Antiprogestins on Alkaline Phosphatase Activity in T47D Cells (T47D Alkaline Phosphatase Assay)
# Culture medium: DMEM:F12 (1:1) (GIBCO, BRL) supplemented with 5% (v/v) charcoal stripped fetal bovine serum (not heat-inactivated), 100 U/mL penicillin, 100 μg/mL streptomycin, and 2 mM GlutaMax (GIBCO, BRL).
# Alkaline phosphatase assay buffer: I. 0.1M Tris-HCl, pH 9.8, containing 0.2% Triton X-100, 0.1M Tris-HCl, pH 9.8, containing 4 mM p-nitrophenyl phosphate (Sigma).
# 2. Cell Culture and Treatment:
# Frozen T47D cells are thawed in a 37° C. water bath and diluted to 280,000 cells/mL in culture medium. To each well in a 96-well plate (Falcon, Becton Dickinson Labware), 180 μl of diluted cell suspension is added. Twenty μl of reference or test compounds diluted in the culture medium is then added to each well. When testing for progestin antagonist activity, reference antiprogestins or test compounds are added in the presence of 1 nM progesterone. The cells are incubated at 37° C. in a 5% CO2 humidified atmosphere for 24 hours. For high throughput screening, one concentration of each compound will be tested at 0.3 μg/mL. Based on an average molecular weight of 300 g/mol for the compounds in the library, the concentration is approximately 1 μM. Subsequently, active compounds will be tested in dose response assays to determine EC50 and IC50.
# 3. Alkaline Phosphatase Enzyme Assay:
# At the end of treatment, the medium is removed from the plate. Fifty μl of assay buffer I is added to each well. The plates are shaken in a titer plate shaker for 15 min. Then 150 μl of assay buffer II is added to each well. Optical density measurements are taken at 5 min intervals for 30 min at a test wavelength of 405 nm.
# 4. Analysis of Dose-Response Data.
# For reference and test compounds, a dose response curve is generated for dose vs. the rate of enzyme reaction (slope). Square root-transformed data are used for analysis of variance and nonlinear dose response curve fitting for both agonist and antagonist modes. Huber weighting is used to down-weight the effects of outliers. EC50 or IC50 values are calculated from the retransformed values. JMP software (SAS Institute, Inc.) is used for both one-way analysis of variance and non-4 linear dose response analysis in both single dose and dose response studies.
# Progesterone and trimegestone are reference progestins and RU486 is the reference antiprogestin. All reference compounds are run in full dose response curves and the EC50 and IC50 values are calculated.
row,IC50 [nM],Structure (SMILES)
1,13,"CC(C)N1C(=O)C(C)(C)c2cc(-c3ccc(C#N)n3C)cc(F)c21 [5-(7-fluoro-1-isopropyl-3,3-dimethyl-2-oxo-2,3-dihydro-1H-indol-5-yl)-1-methyl-1H-pyrrole-2-carbonitrile]"
2,109,"Cn1c(C#N)ccc1-c1cc(F)c2c(c1)CC(=O)N2 [5-(7-fluoro-2-oxo-2,3-dihydro-1H-indol-5-yl)-1-methyl-1H-pyrrole-2-carbonitrile]"
3,30,"C#CCN1C(=O)C(C)(C)c2cc(-c3ccc(C#N)n3C)cc(F)c21 [5-(7-fluoro-3,3-dimethyl-2-oxo-1-prop-2-yn-1-yl-2,3-dihydro-1H-indol-5-yl)-1-methyl-1H-pyrrole-2-carbonitrile]"
4,26.5,"CCCN1C(=O)C(C)(C)c2cc(-c3ccc(C#N)n3C)cc(F)c21 [5-(7-fluoro-3,3-dimethyl-2-oxo-1-propyl-2,3-dihydro-1H-indol-5-yl)-1-methyl-1H-pyrrole-2-carbonitrile]"
5,107,"CC1(C)C(=O)Nc2c(F)cc(-c3ccc(C#N)[nH]3)cc21 [5-(7-fluoro-3,3-dimethyl-2-oxo-2,3-dihydro-1H-indol-5-yl)-1H-pyrrole-2-carbonitrile]"
6,2.75,"Cn1c(C#N)ccc1-c1cc(F)c2c(c1)C1(CCC1)C(=O)N2 [5-(7′-fluoro-2′-oxo-1′,2′-dihydrospiro[cyclobutane-1,3′-indol]-5′-yl)-1-methyl-1H-pyrrole-2-carbonitrile]"
7,3.2,"Cn1c(C#N)ccc1-c1cc(F)c2c(c1)C1(CCCC1)C(=O)N2 [5-(7′-fluoro-2′-oxo-1′,2′-dihydrospiro[cyclopentane-1,3′-indol]-5′-yl)-1-methyl-1H-pyrrole-2-carbonitrile]"
8,10.8,"Cn1c(C#N)ccc1-c1cc(F)c2c(c1)C1(CC1)C(=O)N2 [5-(7′-fluoro-2′-oxo-1′,2′-dihydrospiro[cyclopropane-1,3′-indol]-5′-yl)-1-methyl-1H-pyrrole-2-carbonitrile]"
9,351,"Cn1c(C#N)ccc1-c1cc(F)c2c(c1)C(C)(C)C(=O)N2CCc1ccccc1 [5-[7-fluoro-3,3-dimethyl-2-oxo-1-(2-phenylethyl)-2,3-dihydro-1H-indol-5-yl]-1-methyl-1H-pyrrole-2-carbonitrile]"
10,48,"COC(=O)CN1C(=O)C(C)(C)c2cc(-c3ccc(C#N)n3C)cc(F)c21 [methyl [5-(5-cyano-1-methyl-1H-pyrrol-2-yl)-7-fluoro-3,3-dimethyl-2-oxo-2,3-dihydro-1H-indol-1-yl]acetate]"
11,125,"CC(C)(C)OC(=O)n1c(C#N)ccc1-c1cc(F)c2c(c1)C(C)(C)C(=O)N2 [tert-butyl 2-cyano-5-(7-fluoro-3,3-dimethyl-2-oxo-2,3-dihydro-1H-indol-5-yl)-1H-pyrrole-1-carboxylate]"

# Continued, compound first:
row,Structure (SMILES),IC50 [nM]
1,"C=CCN1C(=O)C(C)(C)c2cc(-c3ccc(C#N)n3C)cc(F)c21 [5-(1-allyl-7-fluoro-3,3-dimethyl-2-oxo-2,3-dihydro-1H-indol-5-yl)-1-methyl-1H-pyrrole-2-carbonitrile]",4.5
2,"Cn1c(C#N)ccc1-c1cc(F)c2c(c1)C(C)(C)C(=O)N2Cc1ccccc1 [5-(1-benzyl-7-fluoro-3,3-dimethyl-2-oxo-2,3-dihydro-1H-indol-5-yl)-1-methyl-1H-pyrrole-2-carbonitrile]",164
3,"Cn1c(C#N)ccc1-c1cc(F)c2c(c1)C(C)(C)C(=O)N2C1CCCCC1 [5-(1-cyclohexyl-7-fluoro-3,3-dimethyl-2-oxo-2,3-dihydro-1H-indol-5-yl)-1-methyl-1H-pyrrole-2-carbonitrile]",194
4,"Cn1c(C#N)ccc1-c1cc(F)c2c(c1)C(C)(C)C(=O)N2C1CCCC1 [5-(1-cyclopentyl-7-fluoro-3,3-dimethyl-2-oxo-2,3-dihydro-1H-indol-5-yl)-1-methyl-1H-pyrrole-2-carbonitrile]",25.2
5,"CCN1C(=O)C(C)(C)c2cc(-c3ccc(C#N)n3C)cc(F)c21 [5-(1-ethyl-7-fluoro-3,3-dimethyl-2-oxo-2,3-dihydro-1H-indol-5-yl)-1-methyl-1H-pyrrole-2-carbonitrile]",29.5
6,"CCC1(CC)C(=O)Nc2c(F)cc(-c3ccc(C#N)n3C)cc21 [5-(3,3-diethyl-7-fluoro-2-oxo-2,3-dihydro-1H-indol-5-yl)-1-methyl-1H-pyrrole-2-carbonitrile]",4.95
7,"Cn1c(C#N)ccc1-c1ccc2c(c1F)C(C)(C)C(=O)N2 [5-(4-fluoro-3,3-dimethyl-2-oxo-2,3-dihydro-1H-indol-5-yl)-1-methyl-1H-pyrrole-2-carbonitrile]",30
8,"Cn1c(C#N)ccc1-c1ccc2c(c1F)C1(CC1)C(=O)N2 [5-(4′-fluoro-2′-oxo-1′,2′-dihydrospiro[cyclopropane-1,3′-indol]-5′yl)-1-methyl-1H-pyrrole-2-carbonitrile]",7.8
9,"CN1C(=O)C(C)(C)c2cc(-c3ccc(C#N)n3C)cc(F)c21 [5-(7-Fluoro-1,3,3-trimethyl-2-oxo-2,3-dihydro-1H-indol-5-yl)-1-methyl-1H-pyrrole-2-carbonitrile]",22.3
10,"CC(C)CN1C(=O)C(C)(C)c2cc(-c3ccc(C#N)n3C)cc(F)c21 [5-(7-fluoro-1-isobutyl-3,3-dimethyl-2-oxo-2,3-dihydro-1H-indol-5-yl)-1-methyl-1H-pyrrole-2-carbonitrile]",29.9
